ChEMBL document CHEMBL5696439 (Cancer Res, 2010)
The source made the active and inactive calls. The rule behind the calls is not given here.

Legend:
MDA-MB-361 [1] = test: Antitumor activity against human MDA-MB-361 cells xenografted in female nude mouse model assessed as suppression in P-S6K at T389 level at 50 mg/kg, iv administered once a week and measured at least 8 hrs by immunoblot analysis; format: functional, organism-based
[2] = target: Serine/threonine-protein kinase pim-1 (Homo sapiens) (UniProt P11309); test: Inhibition of recombinant human full length His-tagged PIM1 expressed in insect cells at 2 uM using Ser/Thr 07 as substrate measured after 1 hr by Z'-LYTE assay relative to control; details: Insect cell
Serine/threonine-protein kinase pim-1 (Homo sapiens), sequence (P11309 whole entry, looked up): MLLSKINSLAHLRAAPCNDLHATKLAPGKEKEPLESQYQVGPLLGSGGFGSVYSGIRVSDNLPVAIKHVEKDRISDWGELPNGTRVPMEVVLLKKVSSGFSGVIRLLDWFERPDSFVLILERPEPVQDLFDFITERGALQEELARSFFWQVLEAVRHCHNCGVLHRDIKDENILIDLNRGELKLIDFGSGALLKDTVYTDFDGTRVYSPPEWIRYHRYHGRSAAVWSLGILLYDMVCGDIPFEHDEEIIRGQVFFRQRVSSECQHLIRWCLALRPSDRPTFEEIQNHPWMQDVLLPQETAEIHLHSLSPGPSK

[3] = target: Tyrosine-protein kinase receptor UFO (Homo sapiens) (UniProt P30530); test: Inhibition of recombinant human His-tagged AXL (473 to end residues) expressed in insect cells at 2 uM using Tyr 06 as substrate measured after 1 hr by Z'-LYTE assay relative to control; details: Insect cell
Tyrosine-protein kinase receptor UFO (Homo sapiens), sequence (P30530 whole entry): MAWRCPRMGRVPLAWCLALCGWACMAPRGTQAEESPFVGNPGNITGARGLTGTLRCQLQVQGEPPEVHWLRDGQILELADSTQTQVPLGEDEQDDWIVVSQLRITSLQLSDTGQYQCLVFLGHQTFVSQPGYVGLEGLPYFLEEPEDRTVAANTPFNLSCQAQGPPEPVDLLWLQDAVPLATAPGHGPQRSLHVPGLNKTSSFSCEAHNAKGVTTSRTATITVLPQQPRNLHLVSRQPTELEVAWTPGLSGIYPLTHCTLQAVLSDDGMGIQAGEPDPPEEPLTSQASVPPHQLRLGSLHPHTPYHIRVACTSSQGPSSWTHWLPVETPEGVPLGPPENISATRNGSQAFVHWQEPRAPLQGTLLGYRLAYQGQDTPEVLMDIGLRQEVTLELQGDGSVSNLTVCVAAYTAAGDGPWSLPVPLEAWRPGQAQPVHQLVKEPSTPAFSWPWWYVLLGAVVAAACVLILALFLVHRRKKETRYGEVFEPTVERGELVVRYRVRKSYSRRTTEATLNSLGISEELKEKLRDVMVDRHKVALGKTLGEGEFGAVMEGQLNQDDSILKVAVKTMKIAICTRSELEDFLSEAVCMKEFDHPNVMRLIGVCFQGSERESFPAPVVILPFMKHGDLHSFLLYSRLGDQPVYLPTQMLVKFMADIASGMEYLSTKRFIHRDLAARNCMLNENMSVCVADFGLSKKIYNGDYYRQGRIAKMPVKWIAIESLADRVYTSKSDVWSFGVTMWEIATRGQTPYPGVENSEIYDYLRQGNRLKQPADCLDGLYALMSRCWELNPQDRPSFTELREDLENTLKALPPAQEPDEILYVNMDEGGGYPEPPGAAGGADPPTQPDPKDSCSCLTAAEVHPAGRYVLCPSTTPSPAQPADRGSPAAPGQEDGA

HT-29 = test: Antitumor activity against human HT-29 cells xenografted in female nude mouse model assessed as suppression in P-S6K at T389 level at 50 mg/kg, iv administered once a week and measured at least 8 hrs by immunoblot analysis; format: functional, organism-based
HCT-116 = test: Antitumor activity against human HCT-116 cells xenografted in female nude mouse model assessed as reduction in P-AKT at T308 level at 50 mg/kg, iv administered once a week and measured at least 8 hrs by immunoblot analysis; format: functional, organism-based
[4] = target: Fibroblast growth factor receptor 4 (Homo sapiens) (UniProt P22455); test: Inhibition of recombinant human His-tagged FGFR4 ([…] residues) expressed in insect cells at 2 uM using Tyr 04 as substrate measured after 1 hr by Z'-LYTE assay relative to control; details: Insect cell
[5] = target: Ribosomal protein S6 kinase alpha-3 (Homo sapiens) (UniProt P51812); test: Inhibition of recombinant human full length His-tagged RPS6KA3 expressed in baculovirus expression system at 2 uM using Ser/Thr 06 as substrate measured after 1 hr by Z'-LYTE assay relative to control
[6] = target: Insulin receptor-related protein (Homo sapiens) (UniProt P14616); test: Inhibition of recombinant human GST-tagged INSRR (944-1297 residues) expressed in insect cells at 2 uM using Tyr 04 as substrate measured after 1 hr by Z'-LYTE assay relative to control; details: Insect cell
Insulin receptor-related protein (Homo sapiens), sequence (P14616 27-742 limits assumed): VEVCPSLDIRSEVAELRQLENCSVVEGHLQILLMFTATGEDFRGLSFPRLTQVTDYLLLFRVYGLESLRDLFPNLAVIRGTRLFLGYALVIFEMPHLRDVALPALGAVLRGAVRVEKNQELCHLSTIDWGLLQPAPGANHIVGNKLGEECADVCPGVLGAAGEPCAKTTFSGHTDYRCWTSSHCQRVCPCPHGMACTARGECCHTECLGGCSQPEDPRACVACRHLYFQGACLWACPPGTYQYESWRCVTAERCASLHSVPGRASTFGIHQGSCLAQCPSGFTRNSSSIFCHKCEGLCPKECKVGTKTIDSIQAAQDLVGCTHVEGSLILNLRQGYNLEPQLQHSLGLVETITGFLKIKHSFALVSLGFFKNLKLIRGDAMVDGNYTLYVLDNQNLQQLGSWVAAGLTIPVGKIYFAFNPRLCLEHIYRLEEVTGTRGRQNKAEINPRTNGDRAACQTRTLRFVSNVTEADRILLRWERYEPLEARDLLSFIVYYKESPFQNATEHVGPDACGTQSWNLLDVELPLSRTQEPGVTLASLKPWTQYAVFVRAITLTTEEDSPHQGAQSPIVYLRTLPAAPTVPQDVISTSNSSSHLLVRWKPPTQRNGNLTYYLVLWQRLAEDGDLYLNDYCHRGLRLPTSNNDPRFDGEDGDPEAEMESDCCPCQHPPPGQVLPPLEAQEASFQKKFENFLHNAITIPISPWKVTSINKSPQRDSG
Insulin receptor-related protein (Homo sapiens), sequence (P14616 747-1297 limits assumed): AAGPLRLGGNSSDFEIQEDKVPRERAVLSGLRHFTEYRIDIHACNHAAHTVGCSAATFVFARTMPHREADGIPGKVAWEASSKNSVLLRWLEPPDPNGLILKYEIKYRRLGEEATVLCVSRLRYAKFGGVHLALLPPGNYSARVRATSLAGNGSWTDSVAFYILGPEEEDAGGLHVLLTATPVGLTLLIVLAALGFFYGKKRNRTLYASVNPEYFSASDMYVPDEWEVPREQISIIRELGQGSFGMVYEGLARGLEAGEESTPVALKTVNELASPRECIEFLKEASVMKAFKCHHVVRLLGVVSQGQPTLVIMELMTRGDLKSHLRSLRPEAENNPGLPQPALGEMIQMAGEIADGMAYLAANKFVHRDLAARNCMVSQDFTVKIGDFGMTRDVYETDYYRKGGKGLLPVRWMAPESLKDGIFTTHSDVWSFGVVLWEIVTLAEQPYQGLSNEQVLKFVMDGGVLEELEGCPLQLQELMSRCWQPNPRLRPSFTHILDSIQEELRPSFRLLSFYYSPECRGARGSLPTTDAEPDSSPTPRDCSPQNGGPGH

[7] = target: MAP kinase-activated protein kinase 2 (Homo sapiens) (UniProt P49137); test: Inhibition of recombinant human full length His-tagged MAPKAPK2 expressed in E. coli at 2 uM using Ser/Thr 04 as substrate measured after 1 hr by Z'-LYTE assay relative to control
[8] = target: Serine/threonine-protein kinase B-raf (Homo sapiens) (UniProt P15056); test: Inhibition of recombinant human full-length GST tagged BRAF expressed in insect cells at 2 uM using Ser/Thr 03 as substrate measured after 1 hr by Z'-LYTE assay relative to control; details: Insect cell
[9] = target: Tyrosine-protein kinase CSK (Homo sapiens) (UniProt P41240); test: Inhibition of recombinant human full-length His-tagged CSK expressed in E. coli at 2 uM using Tyr 02 as substrate measured after 1 hr by Z'-LYTE assay relative to control
[10] = tested on: Platelet-derived growth factor receptor alpha (Homo sapiens), P16234 [T674I]; test: Inhibition of recombinant human GST-tagged PDGFRA T674I mutant (550-1089 residues) expressed in baculovirus expression system at 2 uM using Tyr 04 as substrate measured after 1 hr by Z'-LYTE assay relative to control
[11] = target: Tyrosine-protein kinase HCK (Homo sapiens) (UniProt P08631); test: Inhibition of recombinant human full-length GST-tagged HCK expressed in insect cells at 2 uM using Tyr 02 as substrate measured after 1 hr by Z'-LYTE assay relative to control; details: Insect cell
PC3MM2 = test: Antitumor activity against human PC3MM2 cells xenografted in female nude mouse model assessed as reduction in P-AKT at T308 level at 50 mg/kg, iv administered once a week and measured at least 8 hrs by immunoblot analysis; format: functional, organism-based
[12] = target: Testis-specific serine/threonine-protein kinase 2 (Homo sapiens) (UniProt Q96PF2); test: Inhibition of recombinant human full length His-tagged STK22B expressed in insect cells at 2 uM using Ser/Thr 04 as substrate measured after 1 hr by Z'-LYTE assay relative to control; details: Insect cell
Testis-specific serine/threonine-protein kinase 2 (Homo sapiens), sequence (Q96PF2 whole entry): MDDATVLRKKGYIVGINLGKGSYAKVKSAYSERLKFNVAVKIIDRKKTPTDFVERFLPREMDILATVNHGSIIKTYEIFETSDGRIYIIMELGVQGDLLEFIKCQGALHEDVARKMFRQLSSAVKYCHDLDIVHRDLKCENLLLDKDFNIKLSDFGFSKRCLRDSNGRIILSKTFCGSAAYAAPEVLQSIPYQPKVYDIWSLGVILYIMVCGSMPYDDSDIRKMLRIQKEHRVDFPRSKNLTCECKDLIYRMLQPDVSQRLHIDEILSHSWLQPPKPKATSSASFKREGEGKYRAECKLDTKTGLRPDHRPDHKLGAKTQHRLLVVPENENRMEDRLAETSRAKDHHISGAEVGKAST

[13] = target: Serine/threonine-protein kinase Chk1 (Homo sapiens) (UniProt O14757); test: Inhibition of recombinant human full-length His-tagged CHEK1 expressed in baculovirus expression system at 2 uM using Ser/Thr 19 as substrate measured after 1 hr by Z'-LYTE assay relative to control
[14] = target: Dual specificity mitogen-activated protein kinase kinase 1 (Homo sapiens) (UniProt Q02750); test: Inhibition of recombinant human full length His-tagged MAP2K1 expressed in baculovirus expression system at 2 uM using Ser/Thr 03 as substrate measured after 1 hr by Z'-LYTE assay relative to control
MDA-MB-361 [15] = test: Induction of apoptosis in human MDA-MB-361 cells assessed as decrease in AKT phosphorylation at S473 level at 0.05 to 5 micromol/L incubated for 48 hrs by Western blot analysis; format: functional, cell-based; details: dose 0.05-5 µmol/L
mTORC2 (Homo sapiens) [16] = target: T1, mTORC2 (Homo sapiens) (UniProt P42345+Q6R327+Q9BVC4+Q9BPZ7); details: PC3MM2, dose 0.1-1 µM, time 6.0 hrs
MDA-MB-361 [17] = test: Inhibition of protein synthesis in human MDA-MB-361 cells at 1 micromol/L incubated for 3 hrs by [3H] methionine incorporation based scintillation counter analysis relative to control; format: functional; details: MDA-MB-361, 3 h, dose 1 µmol/L
[18] = target: cAMP-dependent protein kinase catalytic subunit PRKX (Homo sapiens) (UniProt P51817); test: Inhibition of recombinant human full length GST-tagged PRKX expressed in insect cells at 2 uM using Ser/Thr 01 as substrate measured after 1 hr by Z'-LYTE assay relative to control; details: Insect cell
cAMP-dependent protein kinase catalytic subunit PRKX (Homo sapiens), sequence (P51817 whole entry): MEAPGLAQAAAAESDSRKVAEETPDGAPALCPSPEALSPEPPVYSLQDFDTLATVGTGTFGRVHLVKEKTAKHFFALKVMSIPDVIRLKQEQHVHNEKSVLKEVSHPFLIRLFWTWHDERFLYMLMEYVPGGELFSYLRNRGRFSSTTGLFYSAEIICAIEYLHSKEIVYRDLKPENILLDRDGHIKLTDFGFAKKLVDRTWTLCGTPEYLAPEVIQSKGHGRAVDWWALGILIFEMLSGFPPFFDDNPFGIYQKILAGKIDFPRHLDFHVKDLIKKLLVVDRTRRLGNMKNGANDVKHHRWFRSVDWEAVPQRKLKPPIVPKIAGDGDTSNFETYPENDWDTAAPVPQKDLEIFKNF

MDA-MB-361 [19] = test: Induction of apoptosis in human MDA-MB-361 cells assessed as induction in cell death at 1 micromol/L incubated for 48 hrs by FACS analysis relative to control; format: functional; details: dose 1 µmol/L, at 1 µM
[20] = target: Dual specificity tyrosine-phosphorylation-regulated kinase 4 (Homo sapiens) (UniProt Q9NR20); test: Inhibition of recombinant human full-length GST-tagged DYRK4 expressed in insect cells at 2 uM using Ser/Thr 09 as substrate measured after 1 hr by Z'-LYTE assay relative to control; details: Insect cell
Dual specificity tyrosine-phosphorylation-regulated kinase 4 (Homo sapiens), sequence (Q9NR20 whole entry, the tested form may be a part): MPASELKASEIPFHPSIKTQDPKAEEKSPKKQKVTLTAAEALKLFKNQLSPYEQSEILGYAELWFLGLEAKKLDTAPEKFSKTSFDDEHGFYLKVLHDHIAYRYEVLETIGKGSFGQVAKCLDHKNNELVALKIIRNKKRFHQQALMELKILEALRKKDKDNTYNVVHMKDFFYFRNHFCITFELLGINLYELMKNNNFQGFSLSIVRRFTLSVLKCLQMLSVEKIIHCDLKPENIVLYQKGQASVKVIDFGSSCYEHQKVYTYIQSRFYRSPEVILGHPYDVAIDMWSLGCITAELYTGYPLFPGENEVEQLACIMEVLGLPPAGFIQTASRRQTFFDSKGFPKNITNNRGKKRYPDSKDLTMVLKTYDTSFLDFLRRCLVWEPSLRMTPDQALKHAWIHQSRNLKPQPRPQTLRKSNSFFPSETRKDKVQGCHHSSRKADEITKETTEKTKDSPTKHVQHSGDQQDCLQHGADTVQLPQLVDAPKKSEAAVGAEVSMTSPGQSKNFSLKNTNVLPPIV

[21] = tested on: Epidermal growth factor receptor (Homo sapiens), P00533 [L858R]; test: Inhibition of recombinant human GST-tagged EGFR L858R mutant (668-1210 residues) expressed in insect cells at 2 uM using Tyr 04 as substrate measured after 1 hr by Z'-LYTE assay relative to control; details: Insect cell
Epidermal growth factor receptor (Homo sapiens), P00533 [L858R], sequence (P00533 whole entry L858R, the tested form may be a part): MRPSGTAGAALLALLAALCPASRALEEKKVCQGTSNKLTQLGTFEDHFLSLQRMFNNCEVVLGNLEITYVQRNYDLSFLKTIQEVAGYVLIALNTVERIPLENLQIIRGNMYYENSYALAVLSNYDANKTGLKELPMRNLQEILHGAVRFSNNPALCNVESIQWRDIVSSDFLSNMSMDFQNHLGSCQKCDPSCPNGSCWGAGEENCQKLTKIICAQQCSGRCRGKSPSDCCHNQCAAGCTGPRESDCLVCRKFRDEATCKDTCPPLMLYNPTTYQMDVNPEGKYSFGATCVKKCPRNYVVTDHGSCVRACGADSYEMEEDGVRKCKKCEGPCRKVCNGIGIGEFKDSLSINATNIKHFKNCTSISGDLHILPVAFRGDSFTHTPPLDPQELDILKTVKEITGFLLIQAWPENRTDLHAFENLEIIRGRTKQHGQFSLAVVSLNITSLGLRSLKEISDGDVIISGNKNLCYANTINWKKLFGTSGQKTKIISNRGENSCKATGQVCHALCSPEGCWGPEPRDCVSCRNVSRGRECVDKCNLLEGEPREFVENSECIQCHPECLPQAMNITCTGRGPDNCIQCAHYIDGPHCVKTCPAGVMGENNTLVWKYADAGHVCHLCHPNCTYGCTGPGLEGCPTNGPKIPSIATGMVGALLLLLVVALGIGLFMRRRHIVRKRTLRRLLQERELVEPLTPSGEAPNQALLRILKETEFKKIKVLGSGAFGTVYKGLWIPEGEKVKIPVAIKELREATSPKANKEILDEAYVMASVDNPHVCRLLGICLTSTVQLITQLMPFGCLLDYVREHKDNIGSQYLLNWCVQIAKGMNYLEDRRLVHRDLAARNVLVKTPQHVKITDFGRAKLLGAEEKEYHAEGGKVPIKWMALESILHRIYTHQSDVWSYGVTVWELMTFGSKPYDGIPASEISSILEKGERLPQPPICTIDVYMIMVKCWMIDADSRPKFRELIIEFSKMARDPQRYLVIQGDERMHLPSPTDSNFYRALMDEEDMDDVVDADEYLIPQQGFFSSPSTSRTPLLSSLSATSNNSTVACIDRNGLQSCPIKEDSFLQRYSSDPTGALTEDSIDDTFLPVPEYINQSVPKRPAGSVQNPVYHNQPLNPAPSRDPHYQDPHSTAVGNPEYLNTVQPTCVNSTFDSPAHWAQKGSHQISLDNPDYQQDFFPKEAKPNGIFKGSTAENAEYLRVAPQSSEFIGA

mTORC2 (Homo sapiens) [22] = target: T1, mTORC2 (Homo sapiens); details: PC3MM2, dose 0.1-1 µM, time 6.0 hrs; remark: listed apart in the source

Compound: CNC(=O)Nc1ccc(-c2nc(N3CC4CCC(C3)O4)c3cnn(C4CCC5(CC4)OCCO5)c3n2)cc1
- Activity (MDA-MB-361 [1]): Active
- inhibition [2]: 1%
- inhibition [3]: 2%
- Activity (HT-29): Active
- Activity (HCT-116): inactive
- inhibition [4]: 4%
- inhibition [5]: -2%
- inhibition [6]: 6%
- inhibition [7]: 4%
- inhibition [8]: 6%
- inhibition [9]: -1%
- inhibition [10]: 12%
- inhibition [11]: 5%
- Activity (PC3MM2): inactive
- inhibition [12]: 2%
- inhibition [13]: 9%
- inhibition [14]: 3%
- Activity (MDA-MB-361 [15]): Active
- inhibition (mTORC2 (Homo sapiens) [16]): inactive
- inhibition at 1 µM (MDA-MB-361 [17]): ~50%
- inhibition [18]: 5%
- Activity (MDA-MB-361 [19]): 47%
- inhibition [20]: 4%
- inhibition [21]: 3%
- inhibition (mTORC2 (Homo sapiens) [22]): Active
